In this experiment the target is T1, ΔF508-CFTR (Homo sapiens, UniProt P13569, DEL508-508).
T1 construct: expressed in transfected cells; host or cells: NIH3T3 mouse fibroblasts stably expressing ΔF508-CFTR for the optical, whole-cell and single-channel assays; Fisher rat epithelial (FRT) cells for Ussing chamber follow-up
In words: Assays for ΔF508-CFTR correction and potentiator properties (membrane potential optical and electrophysiological methods). It is filed as cell-based. Conditions: CFTR modulation; for % Activity: % Efficacy; for pEC50: tested using the above methods. The method in brief: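 NIH3T3 mouse fibroblasts stably expressing ΔF508-CFTR were used, with membrane potential read by DiSBAC2(3)/CC2-DMPE FRET on VIPR. Correctors: 16 h compound exposure at 37 °C, then activation with forskolin plus genistein in Cl⁻-free medium. Potentiators: cells held 24 h at 27 °C, compound added in Cl⁻-free medium, 2-10 μM forskolin 22 s later (final Cl⁻ 28 mM).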

Consider 50 molecules from patent US9249131B2, “Modulators of ATP-binding cassette transporters” (Vertex Pharmaceuticals Incorporated, priority 2003, dated 2016).

pEC50: −log10 of the molar value.

T1 sequence (P13569 with tags, fused parts or gaps DEL508-508): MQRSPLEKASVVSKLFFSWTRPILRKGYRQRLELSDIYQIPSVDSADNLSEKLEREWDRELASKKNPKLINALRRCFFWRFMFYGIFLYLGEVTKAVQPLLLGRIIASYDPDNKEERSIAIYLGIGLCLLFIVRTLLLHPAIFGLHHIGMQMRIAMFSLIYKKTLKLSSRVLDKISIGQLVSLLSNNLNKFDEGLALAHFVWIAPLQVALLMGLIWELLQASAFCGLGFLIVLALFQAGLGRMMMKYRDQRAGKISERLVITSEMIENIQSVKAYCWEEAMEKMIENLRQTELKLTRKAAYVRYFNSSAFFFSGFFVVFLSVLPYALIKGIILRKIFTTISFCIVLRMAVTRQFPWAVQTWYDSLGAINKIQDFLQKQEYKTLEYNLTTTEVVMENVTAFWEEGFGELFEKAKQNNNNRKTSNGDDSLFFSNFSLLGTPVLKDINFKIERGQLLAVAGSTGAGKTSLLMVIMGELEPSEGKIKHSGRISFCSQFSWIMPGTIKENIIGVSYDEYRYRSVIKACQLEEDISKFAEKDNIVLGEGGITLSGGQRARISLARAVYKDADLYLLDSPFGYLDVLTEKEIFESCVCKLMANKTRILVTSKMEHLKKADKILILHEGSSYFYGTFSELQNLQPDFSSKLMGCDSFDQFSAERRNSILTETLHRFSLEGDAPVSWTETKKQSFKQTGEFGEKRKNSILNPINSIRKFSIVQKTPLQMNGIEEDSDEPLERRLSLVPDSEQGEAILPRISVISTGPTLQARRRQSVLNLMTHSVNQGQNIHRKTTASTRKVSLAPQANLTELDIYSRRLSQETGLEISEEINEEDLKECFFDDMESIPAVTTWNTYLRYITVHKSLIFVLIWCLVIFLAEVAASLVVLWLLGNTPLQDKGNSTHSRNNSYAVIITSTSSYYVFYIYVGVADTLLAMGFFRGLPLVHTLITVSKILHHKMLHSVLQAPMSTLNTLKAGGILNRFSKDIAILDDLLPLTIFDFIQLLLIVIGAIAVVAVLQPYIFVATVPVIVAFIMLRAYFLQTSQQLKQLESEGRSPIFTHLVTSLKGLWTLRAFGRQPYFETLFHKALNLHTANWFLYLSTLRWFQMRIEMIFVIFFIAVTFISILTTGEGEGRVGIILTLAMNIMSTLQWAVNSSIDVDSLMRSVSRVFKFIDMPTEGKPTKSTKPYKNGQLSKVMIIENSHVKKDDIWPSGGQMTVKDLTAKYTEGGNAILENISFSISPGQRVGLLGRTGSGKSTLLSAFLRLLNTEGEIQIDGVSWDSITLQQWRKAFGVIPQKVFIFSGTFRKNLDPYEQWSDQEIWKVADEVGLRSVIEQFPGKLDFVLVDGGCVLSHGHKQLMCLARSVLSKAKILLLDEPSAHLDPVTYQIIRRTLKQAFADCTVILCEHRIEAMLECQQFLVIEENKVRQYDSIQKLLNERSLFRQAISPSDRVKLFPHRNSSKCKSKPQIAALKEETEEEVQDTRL

A word on the pEC50: it is the negative decadic logarithm of the EC50, by convention in mol/L. `O=C(Nc1ncc(Cc2cccc(Cl)c2)o1)C(c1ccccc1)C1CCCC1` (stereo not drawn) [compound 156]: the “% Activity” value is reported as “++ (“++” means between 25% to 100%)” and the negative-log EC50 (pEC50) is greater than 5.00.

Consider `O=C(Cc1ccccc1)Nc1ncc(Cc2cccc(Cl)c2)o1` [compound 157], for which the “% Activity” value is “++ (“++” means between 25% to 100%)” and the pEC50 is greater than 5.00. Take `O=C(Nc1ncc(Cc2cccc(Cl)c2)o1)c1ccccc1` [compound 158]: the “% Activity” value is listed as “++ (“++” means between 25% to 100%)”. As for `O=C(Nc1nc(-c2ccccc2Cl)cs1)c1ccccc1` [compound 159], the “% Activity” value is listed as “++ (“++” means between 25% to 100%)” and the pEC50 was greater than 5.00. The corresponding values for `O=C(Nc1nc(-c2cccc(Cl)c2)cs1)c1ccccc1` [compound 160] are “+++ (“+++” means >100%)” and 4.60 to 5.00. For the molecule `N#Cc1ccc(-c2csc(NC(=O)c3ccccc3)n2)cc1` [compound 161], the “% Activity” value was “++ (“++” means between 25% to 100%)” and the pEC50 is 4.22 to 4.60. Regarding `COc1ccc(-c2csc(NC(=O)c3ccccc3)n2)c(OC)c1` [compound 162], the “% Activity” value is “++ (“++” means between 25% to 100%)” and the negative logarithm of the EC50 (pEC50) was 4.22 to 4.60. The corresponding values for `O=C(Nc1nc(-c2ccc(N3CCCC3)cc2)cs1)c1ccccc1` [compound 163] are “++ (“++” means between 25% to 100%)” and 4.60 to 5.00. On the same counts, the results for `O=C(Nc1nc(-c2ccc3c(c2)OCO3)cs1)c1ccccc1` [compound 164] are “++ (“++” means between 25% to 100%)” and 4.60 to 5.00. In the case of `O=C(Nc1nc(-c2ccc(Cl)cc2)c(-c2ccccc2)s1)c1ccccc1` [compound 165], the “% Activity” value is recorded as “+++ (“+++” means >100%)” and the pEC50 is greater than 5.00. On the same counts, the results for `CC(C(=O)Nc1nc(-c2ccccc2)cs1)c1ccccc1` (stereo not drawn) [compound 166] are “++ (“++” means between 25% to 100%)” and 4.60 to 5.00. On the same counts, the results for `CCC(C(=O)Nc1nc(-c2ccccc2)cs1)c1ccccc1` (stereo not drawn) [compound 167] are “++ (“++” means between 25% to 100%)” and greater than 5.00. On the same counts, the results for `CC(C)C(C(=O)Nc1nc(-c2ccccc2)cs1)c1ccccc1` (stereo not drawn) [compound 168] are “++ (“++” means between 25% to 100%)” and greater than 5.00.

As to `O=C(Nc1nc(-c2ccccc2)cs1)C(c1ccccc1)C1CCCC1` (stereo not drawn) [compound 169], the “% Activity” value is recorded as “++ (“++” means between 25% to 100%)” and the negative logarithm of the EC50 (pEC50) was greater than 5.00. The corresponding values for `CCC(C)C(C(=O)Nc1nc(-c2ccccc2)cs1)c1ccccc1` (stereo not drawn) [compound 170] are “++ (“++” means between 25% to 100%)” and greater than 5.00.

On to `COC(=O)c1ccccc1C(=O)Nc1nc(-c2ccccc2)cs1` [compound 171], for which the “% Activity” value is reported as “++ (“++” means between 25% to 100%)” and the pEC50 is greater than 5.00. On the same counts, the results for `CC(C(=O)Nc1nc(-c2ccccc2)c(-c2ccccc2)s1)c1ccccc1` (stereo not drawn) [compound 172] are “+++ (“+++” means >100%)” and greater than 5.00. On the same counts, the results for `CCC(C(=O)Nc1nc(-c2ccccc2)c(-c2ccccc2)s1)c1ccccc1` (stereo not drawn) [compound 173] are “++ (“++” means between 25% to 100%)” and greater than 5.00.

For the molecule `CC(C)C(C(=O)Nc1nc(-c2ccccc2)c(-c2ccccc2)s1)c1ccccc1` (stereo not drawn) [compound 174], the “% Activity” value was “++ (“++” means between 25% to 100%)” and the negative logarithm of the EC50 (pEC50) was greater than 5.00.

As to `O=C(Nc1nc(-c2ccccc2)c(-c2ccccc2)s1)C(c1ccccc1)C1CCCC1` (stereo not drawn) [compound 175], the “% Activity” value is on record as “++ (“++” means between 25% to 100%)” and the pEC50 was greater than 5.00. As for `CCC(C)C(C(=O)Nc1nc(-c2ccccc2)c(-c2ccccc2)s1)c1ccccc1` (stereo not drawn) [compound 176], the “% Activity” value is “++ (“++” means between 25% to 100%)” and the negative-log EC50 (pEC50) was greater than 5.00. On the same counts, the results for `O=C(Nc1nc(-c2ccccc2)c(-c2ccccc2)s1)C(c1ccccc1)C1CCCCC1` (stereo not drawn) [compound 177] are “++ (“++” means between 25% to 100%)” and 4.60 to 5.00.

With `COC(=O)c1ccccc1C(=O)Nc1nc(-c2ccccc2)c(-c2ccccc2)s1` [compound 178], the “% Activity” value was “+++ (“+++” means >100%)” and the pEC50 was greater than 5.00. Regarding `COc1ccccc1Cc1cnc(NC(=O)C(c2ccccc2)C2CCCCC2)o1` (stereo not drawn) [compound 179], the “% Activity” value was “++ (“++” means between 25% to 100%)” and the pEC50 was 4.60 to 5.00.

With `COc1ccccc1Cc1cnc(NC(=O)C(c2ccccc2)c2ccccc2)o1` [compound 180], the “% Activity” value is reported as “++ (“++” means between 25% to 100%)” and the pEC50 is 4.60 to 5.00.

With `COc1ccccc1Cc1cnc(NC(=O)C2Cc3ccccc32)o1` (stereo not drawn) [compound 181], the “% Activity” value is “++ (“++” means between 25% to 100%)” and the pEC50 was 4.22 to 4.60. The corresponding values for `COc1ccccc1Cc1cnc(NC(=O)C(C)c2ccccc2)o1` (stereo not drawn) [compound 182] are “++ (“++” means between 25% to 100%)” and 4.22 to 4.60. Take `CCC(C(=O)Nc1ncc(Cc2ccccc2OC)o1)c1ccccc1` (stereo not drawn) [compound 183]: the “% Activity” value is listed as “++ (“++” means between 25% to 100%)” and the negative-log EC50 (pEC50) is 4.22 to 4.60. The corresponding values for `CCC(C)C(C(=O)Nc1ncc(Cc2ccccc2OC)o1)c1ccccc1` (stereo not drawn) [compound 184] are “++ (“++” means between 25% to 100%)” and 4.60 to 5.00. On the same counts, the results for `COc1ccccc1Cc1cnc(NC(=O)c2ccccc2)o1` [compound 185] are “++ (“++” means between 25% to 100%)” and 4.60 to 5.00.

For `O=C(Nc1ncc(Cc2ccccc2Cl)o1)C(c1ccccc1)C1CCCCC1` (stereo not drawn) [compound 186], the “% Activity” value was “++ (“++” means between 25% to 100%)” and the negative-log EC50 (pEC50) is 4.60 to 5.00. The corresponding values for `O=C(Nc1ncc(Cc2ccccc2Cl)o1)C(c1ccc(Cl)cc1)c1ccc(Cl)cc1` [compound 187] are “++ (“++” means between 25% to 100%)” and 4.60 to 5.00. On the same counts, the results for `O=C(Nc1ncc(Cc2ccccc2Cl)o1)C1Cc2ccccc21` (stereo not drawn) [compound 188] are “++ (“++” means between 25% to 100%)” and 4.22 to 4.60. In the case of `CC(C(=O)Nc1ncc(Cc2ccccc2Cl)o1)c1ccccc1` (stereo not drawn) [compound 189], the “% Activity” value is “++ (“++” means between 25% to 100%)” and the pEC50 was 4.22 to 4.60. On to `CCC(C(=O)Nc1ncc(Cc2ccccc2Cl)o1)c1ccccc1` (stereo not drawn) [compound 190], for which the “% Activity” value is given as “++ (“++” means between 25% to 100%)” and the negative logarithm of the EC50 (pEC50) is 4.22 to 4.60. On the same counts, the results for `CCC(C)C(C(=O)Nc1ncc(Cc2ccccc2Cl)o1)c1ccccc1` (stereo not drawn) [compound 191] are “++ (“++” means between 25% to 100%)” and greater than 5.00. As for `O=C(Nc1ncc(Cc2ccccc2Cl)o1)C(c1ccccc1)C1CCCC1` (stereo not drawn) [compound 192], the “% Activity” value was “++ (“++” means between 25% to 100%)” and the negative logarithm of the EC50 (pEC50) was 4.60 to 5.00. On the same counts, the results for `CC(C)C(C(=O)Nc1ncc(Cc2ccccc2Cl)o1)c1ccccc1` (stereo not drawn) [compound 193] are “++ (“++” means between 25% to 100%)” and 4.60 to 5.00. The corresponding values for `O=C(Cc1ccccc1)Nc1ncc(Cc2ccccc2Cl)o1` [compound 194] are “++ (“++” means between 25% to 100%)” and 4.22 to 4.60. On the same counts, the results for `O=C(Nc1ncc(Cc2ccccc2Cl)o1)c1ccccc1` [compound 195] are “++ (“++” means between 25% to 100%)” and greater than 5.00. On to `COc1ccc(S(=O)(=O)N2CCN(C(C)C(=O)Nc3nc(-c4ccccc4)c(-c4ccccc4)s3)CC2)cc1` (stereo not drawn) [compound 196], for which the “% Activity” value is on record as “++ (“++” means between 25% to 100%)” and the negative-log EC50 (pEC50) was greater than 5.00. The corresponding values for `CC(C(=O)Nc1nc(-c2ccccc2)c(-c2ccccc2)s1)N1CCN(S(=O)(=O)c2ccc(Cl)cc2)CC1` (stereo not drawn) [compound 197] are “++ (“++” means between 25% to 100%)” and greater than 5.00. On the same counts, the results for `Cc1ccc(S(=O)(=O)N2CCN(C(C)C(=O)Nc3nc(-c4ccccc4)c(-c4ccccc4)s3)CC2)cc1` (stereo not drawn) [compound 198] are “++ (“++” means between 25% to 100%)” and greater than 5.00. On the same counts, the results for `CC(C(=O)Nc1nc(-c2ccccc2)cs1)N1CCN(S(=O)(=O)c2ccc(Br)cc2)CC1` (stereo not drawn) [compound 199] are “+++ (“+++” means >100%)” and greater than 5.00. Regarding `CC[C@@H](C(=O)Nc1ncc(Cc2ccccc2Cl)s1)c1ccccc1` [compound 201], the “% Activity” value is “+++ (“+++” means >100%)” and the pEC50 was greater than 5.00. On the same counts, the results for `CC[C@H](C(=O)Nc1ncc(Cc2ccccc2Cl)s1)c1ccccc1` [compound 202] are “++ (“++” means between 25% to 100%)” and greater than 5.00. The corresponding values for `CC[C@@H](C(=O)Nc1ncc(Cc2cccc(Cl)c2)s1)c1ccccc1` [compound 203] are “++ (“++” means between 25% to 100%)” and greater than 5.00.

In the case of `CC[C@H](C(=O)Nc1ncc(Cc2cccc(Cl)c2)s1)c1ccccc1` [compound 204], the “% Activity” value is reported as “++ (“++” means between 25% to 100%)” and the pEC50 is greater than 5.00. The corresponding values for `CC[C@H](C(=O)Nc1ncc(Cc2ccc(Cl)cc2)s1)c1ccccc1` [compound 205] are “++ (“++” means between 25% to 100%)” and greater than 5.00.

As for `CC(C)CC(=O)Nc1ncc(Cc2ccccc2Cl)s1` [compound 206], the “% Activity” value is “++ (“++” means between 25% to 100%)” and the pEC50 was greater than 5.00.
